These results are taken from patent US20230000950A1, “COMPOSITION COMPRISING GLUCAGON AND GLP-1 AND GIP RECEPTOR DUAL AGONIST AND THERAPEUTIC USE OF SAME” (HANMI PHARM. CO., LTD., priority 2019, published 2023).

In experiment [1] the target is T1, human GLP-1 receptor (Homo sapiens, UniProt P43220).
T1 construct: expressed in transfected cells; host or cells: CHO DG44
The experiment in a line: cAMP activity of dual agonist in cell line expressing human GLP-1 receptor. As to conditions: EC50 compared with native GLP-1, CHO DG44 cells. In kind it is cell-based. From the text:
(§1) and GIP A recombinant vector was constructed using the expression vector X0GC/dhfr so as to express human GLP-1 receptor and human GIP receptor, then transformed into CHO DG44 cells using lipofectamine, and selectively cultured in a selective medium containing G418 and methotrexate. From this, monoclonal cell lines were selected by limiting dilution. Among these, cell lines showing excellent concentration-dependent cAMP response to GLP-1 and GIP were finally selected.
(§2) In the cell lines expressing human GLP-1 receptor and human GIP receptor produced in Example 6, the activity of the dual agonist synthesized in Example 7 was measured.
(§3) Specifically, the transformed cell lines of Example 6 were subcultured 3 or 4 times a week, and then the subcultured cell lines were seeded in a 384-well plate by 6×10^3 per well and cultured for 24 hours. In HBSS (Hank's balanced salt solution) buffer containing 0.5 mM IBMX (3-isobutyl-1-methylxanthine), 0.1% BSA (bovine serum albumin), and 5 mM HEPES (4-(2-hydroxyethyl)-1-piperazineethanesulfonic acid), native GLP-1 and GIP were suspended at 200 nM and the dual agonist at 1600 nM, and then serially diluted 4-fold 10 times. This was applied to the cAMP assay kit (LANCE cAMP 384 kit, PerkinElmer) and added to each of the cultured cell lines, and then the fluorescence value was measured.

For experiment [2], the target named is T2, human GIP receptor (Homo sapiens, UniProt P48546).
T2 construct: expressed in transfected cells; host or cells: CHO DG44
T2 sequence (P48546 22-466): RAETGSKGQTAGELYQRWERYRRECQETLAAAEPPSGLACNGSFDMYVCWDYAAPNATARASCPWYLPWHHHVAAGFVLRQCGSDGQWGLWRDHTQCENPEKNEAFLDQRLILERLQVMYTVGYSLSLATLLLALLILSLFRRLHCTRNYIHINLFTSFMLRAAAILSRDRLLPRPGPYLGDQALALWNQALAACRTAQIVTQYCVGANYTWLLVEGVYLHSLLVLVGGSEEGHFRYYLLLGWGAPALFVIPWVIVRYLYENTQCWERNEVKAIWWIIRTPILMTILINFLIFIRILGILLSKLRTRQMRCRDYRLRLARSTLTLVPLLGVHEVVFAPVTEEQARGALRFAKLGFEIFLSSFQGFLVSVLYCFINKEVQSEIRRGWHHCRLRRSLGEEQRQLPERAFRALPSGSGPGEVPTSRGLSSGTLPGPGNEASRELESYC
The experiment in a line: cAMP activity of dual agonist in cell line expressing human GIP receptor. In kind it is cell-based. To be noted: EC50 compared with native GIP, CHO DG44 cells.
From the text: as §1, §2, §3

Experiment [3] relates to high-fat diet-induced obese mouse. Nature of the experiment: High-fat diet-induced obese mice: body weight, fat weight, blood lipids, HOMA-IR, energy metabolism-related gene expression. As to conditions: 21 days, subcutaneous; long-acting glucagon derivative 2.0 nmol/kg once every two days, tirzepatide 20 nmol/kg once every two days, Saxenda 50 nmol/kg twice a day. In kind it is in vivo. The procedure:
A high-fat diet-induced obese mouse, which was widely used as an obese animal model, was used for this study. The body weight of the mice was about 50 g to 55 g before administration. During the study period, seven mice were housed and had free access to water. The lights were turned off from 6 P.M. to 6 A.M.
The administration was performed by subcutaneous injection in all cases.
The experiment was terminated on the 21st day, the changes in body weight of the mice corresponding to each group were measured every two days during the experiment. After the experiment was terminated, the fat weight, blood lipid levels, HOMA-IR, and energy metabolism-related gene expression in tissues were measured.

The test system of the next experiment is CD-HFD mouse model. Nature of the experiment: CD-HFD (choline-deficient and high-fat, high-cholesterol diet) mouse model of NASH and fibrosis: NAS and liver collagen expression. In kind it is in vivo. To be noted: 6 weeks repeated administration Q2D subcutaneous, vs CD-HFD vehicle control. An excerpt: In order to verify the efficacy on NASH and fibrosis improvement by combined administration of the long-acting glucagon derivative and GLP-1/GIP dual agonist (tirzepatide) according to the present invention prepared in Examples, a CD-HFD (choline-deficient and high-fat, high-cholesterol diet) mouse model was used.
Mice induced by 8-week CD-HFD were divided into a vehicle control group, a long-acting glucagon derivative (1.3 nmol/kg, Q2D, subcutaneous) administration group, a dual agonist (73 nmol/kg, Q2D, subcutaneous) administration group, and a long-acting glucagon derivative and dual agonist combined administration group, and repeated administration was performed for 6 weeks. As a negative control group, a group administered with a vehicle to normal diet mice was used. After 6 weeks of repeated administration, the liver tissue of each mouse was taken as an autopsy, and the efficacy on NASH and fibrosis improvement was evaluated by measuring NAS (NAFLD activity score) through H&E staining and collagen expression through quantitative PCR.
For the statistical processing in all the cases, the vehicle group (control group) and the test groups were compared using one-way ANOVA, and the t-test was used to compare the additional efficacy of the combined administration group with that of the single administration group (* to ** p<0.05 to 0.001 vs. vehicle control group).

Experiment [4] addresses human GLP-1 receptor (human, UniProt P43220 24-463). Nature of the experiment: cell-based or functional assay.
Experiment [5] deals with T3, human GIP receptor (human, UniProt P48546 22-466).
T3 sequence (looked up): T2 sequence (P48546 22-466)
The experiment in a line: cell-based or functional assay.

T1 sequence (P43220 24-463): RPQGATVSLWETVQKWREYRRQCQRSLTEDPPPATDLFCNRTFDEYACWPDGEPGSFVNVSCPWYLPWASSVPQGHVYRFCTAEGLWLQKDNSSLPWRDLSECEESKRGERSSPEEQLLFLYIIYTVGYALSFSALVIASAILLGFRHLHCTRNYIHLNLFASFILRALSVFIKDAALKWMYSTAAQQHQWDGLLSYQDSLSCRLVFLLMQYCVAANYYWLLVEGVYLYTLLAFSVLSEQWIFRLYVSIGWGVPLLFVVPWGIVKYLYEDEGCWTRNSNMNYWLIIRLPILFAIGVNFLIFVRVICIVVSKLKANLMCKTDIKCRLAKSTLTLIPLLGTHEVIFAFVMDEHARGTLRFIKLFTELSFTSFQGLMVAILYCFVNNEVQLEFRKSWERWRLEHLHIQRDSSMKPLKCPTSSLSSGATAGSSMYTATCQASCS

In the case of `CC[C@H](C)[C@H](NC(=O)[C@H](CC(C)C)NC(=O)[C@H](Cc1c[nH]c2ccccc12)NC(=O)[C@H](CCC(N)=O)NC(=O)[C@@H](NC(=O)[C@H](Cc1ccccc1)NC(=O)[C@H](C)NC(=O)[C@H](CCCCNC(=O)COCCOCCNC(=O)COCCOCCNC(=O)CC[C@H](NC(=O)CCCCCCCCCCCCCCCCCCC(=O)O)C(=O)O)NC(=O)[C@H](CCC(N)=O)NC(=O)[C@H](C)NC(=O)[C@@H](NC(=O)[C@H](CCCCN)NC(=O)[C@H](CC(=O)O)NC(=O)[C@H](CC(C)C)NC(=O)C(C)(C)NC(=O)[C@@H](NC(=O)[C@H](CO)NC(=O)[C@H](Cc1ccc(O)cc1)NC(=O)[C@H](CC(=O)O)NC(=O)[C@H](CO)NC(=O)[C@@H](NC(=O)[C@H](Cc1ccccc1)NC(=O)[C@@H](NC(=O)CNC(=O)[C@H](CCC(=O)O)NC(=O)C(C)(C)NC(=O)[C@@H](N)Cc1ccc(O)cc1)[C@@H](C)O)[C@@H](C)O)[C@@H](C)CC)[C@@H](C)CC)C(C)C)C(=O)N[C@@H](C)C(=O)NCC(=O)NCC(=O)N1CCC[C@H]1C(=O)N[C@@H](CO)C(=O)N[C@@H](CO)C(=O)NCC(=O)N[C@@H](C)C(=O)N1CCC[C@H]1C(=O)N1CCC[C@H]1C(=O)N1CCC[C@H]1C(=O)N[C@@H](CO)C(N)=O` [Dual agonist (tirzepatide)], the “Relative in vitro activity to native ligand (EC50), GLP-1 receptor” value on human GLP-1 receptor [1] is given as 1.3%. Further, the “Relative in vitro activity to native ligand (EC50), GIP receptor” value on human GIP receptor [2] is 6.7%. Also, the “change in body weight compared to before administration” value in experiment [3] is −19.39%. Moreover, the “NAS (NAFLD activity score)” value in the experiment with CD-HFD mouse model (long-acting glucagon derivative 1.3 nmol/kg, dual agonist 73 nmol/kg, H&E staining) is reported as “significantly reduced”. Besides, the “collagen expression in liver tissue” value in the experiment with CD-HFD mouse model (quantitative PCR) is “significantly reduced”.

B1: tirzepatide (peptide)
peptide: YXEGTFTSDYSIXLDKIAQKAFVQWLIAGGPSSGAPPPS
modifications: not fully specified; X at positions 2 and 13 = 2-methylalanine (Aib); Lys 20 N6-[(22S)-22,42-dicarboxy-10,19,24-trioxo-3,6,12,15-tetraoxa-9,18,23-triazadotetracontan-1-oyl]; C-terminal serinamide
Turning to B1, the “Relative in vitro activity to native ligand (EC50), cAMP assay” value with human GLP-1 receptor [4] was 1.3%; with human GIP receptor [5], 6.7%.
